# ChEMBL document CHEMBL1944573, “New bisabolane sesquiterpenoids from a marine-derived fungus Aspergillus sp. isolated from the sponge Xestospongia testudinaria” (Bioorg Med Chem Lett, 2012)
# System: HepG2
# Test: Cytotoxicity against human HepG2 cells by MTT assay
# Format: functional, cell-based
row,Compound,IC50
1,CC(C)CCC[C@](C)(O)c1ccc(CO)cc1Oc1cc(CO)ccc1[C@](C)(O)CCCC(C)C [DISYDONOL B],> 100 µg/mL
2,CC(C)CCC[C@](C)(O)c1ccc(COc2cc(CO)ccc2[C@@](C)(O)CCCC(C)C)cc1O [DISYDONOL A],9.31 µg/mL
3,CC(C)CCC[C@](C)(O)c1ccc(Cc2cc([C@@](C)(O)CCCC(C)C)c(O)cc2CO)cc1O [DISYDONOL C],2.91 µg/mL

# System: Ca-Ski
# Test: Cytotoxicity against human CaSki cells by MTT assay
# Format: functional, cell-based
row,Compound,IC50
1,CC(C)CCC[C@](C)(O)c1ccc(CO)cc1Oc1cc(CO)ccc1[C@](C)(O)CCCC(C)C [DISYDONOL B],> 100 µg/mL
2,CC(C)CCC[C@](C)(O)c1ccc(COc2cc(CO)ccc2[C@@](C)(O)CCCC(C)C)cc1O [DISYDONOL A],12.4 µg/mL
3,CC(C)CCC[C@](C)(O)c1ccc(Cc2cc([C@@](C)(O)CCCC(C)C)c(O)cc2CO)cc1O [DISYDONOL C],10.2 µg/mL
